# Experimental data as given in PubChem BioAssay (NCI).
#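 Five compound concentrations were applied to cells in 96-well plates for 48 hours; endpoints were derived by simple linear interpolation of the resulting dose-response curve. GI50 = concentration required for 50% inhibition of growth. TGI marks complete inhibition of growth.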
# Assays:
# Test in all cases: DTP human tumour cell line panel, 48 h
# 786-0 renal = test system: 786-0 renal
# A498 renal = test system: A498 renal
# A549 NSCLC = test system: A549 NSCLC
# ACHN renal = test system: ACHN renal
# BT-549 breast = test system: BT-549 breast
# CAKI-1 renal = test system: CAKI-1 renal
# CCRF-CEM leukemia = test system: CCRF-CEM leukemia
# COLO 205 colon = test system: COLO 205 colon
# DU-145 prostate = test system: DU-145 prostate
# EKVX NSCLC = test system: EKVX NSCLC
# HCC-2998 colon = test system: HCC-2998 colon
# HCT-116 colon = test system: HCT-116 colon
# HCT-15 colon = test system: HCT-15 colon
# HL-60(TB) leukemia = test system: HL-60(TB) leukemia
# HOP-62 NSCLC = test system: HOP-62 NSCLC
# HOP-92 NSCLC = test system: HOP-92 NSCLC
# HS 578T breast = test system: HS 578T breast
# HT29 colon = test system: HT29 colon
# IGROV1 ovarian = test system: IGROV1 ovarian
# K-562 leukemia = test system: K-562 leukemia
# KM12 colon = test system: KM12 colon
# LOX IMVI melanoma = test system: LOX IMVI melanoma
# M14 melanoma = test system: M14 melanoma
# MALME-3M melanoma = test system: MALME-3M melanoma
# MCF7 breast = test system: MCF7 breast
# MDA-MB-231 breast = test system: MDA-MB-231 breast
# MDA-MB-435 = test system: MDA-MB-435
# MDA-MB-468 breast = test system: MDA-MB-468 breast
# MOLT-4 leukemia = test system: MOLT-4 leukemia
# NCI-H226 lung = test system: NCI-H226 lung
# NCI-H23 lung = test system: NCI-H23 lung
# NCI-H460 lung = test system: NCI-H460 lung
# NCI-H522 lung = test system: NCI-H522 lung
# NCI/ADR-RES ovarian = test system: NCI/ADR-RES ovarian
# OVCAR-3 ovarian = test system: OVCAR-3 ovarian
# OVCAR-4 ovarian = test system: OVCAR-4 ovarian
# OVCAR-5 ovarian = test system: OVCAR-5 ovarian
# OVCAR-8 ovarian = test system: OVCAR-8 ovarian
# PC-3 prostate = test system: PC-3 prostate
# RPMI-8226 leukemia = test system: RPMI-8226 leukemia
# RXF 393 renal = test system: RXF 393 renal
# SF-268 CNS = test system: SF-268 CNS
# SF-295 CNS = test system: SF-295 CNS
# SF-539 CNS = test system: SF-539 CNS
# SK-MEL-2 melanoma = test system: SK-MEL-2 melanoma
# SK-MEL-28 melanoma = test system: SK-MEL-28 melanoma
# SK-MEL-5 melanoma = test system: SK-MEL-5 melanoma
# SK-OV-3 ovarian = test system: SK-OV-3 ovarian
# SN12C renal = test system: SN12C renal
# SNB-19 CNS = test system: SNB-19 CNS
# SNB-75 CNS = test system: SNB-75 CNS
# SW-620 colon = test system: SW-620 colon
# T-47D breast = test system: T-47D breast
# TK-10 renal = test system: TK-10 renal
# U251 CNS = test system: U251 CNS
# UACC-257 melanoma = test system: UACC-257 melanoma
# UACC-62 melanoma = test system: UACC-62 melanoma
# UO-31 renal = test system: UO-31 renal
smiles,measurement,setting,value
N/C(=N\c1nc2ccccc2s1)NC(=O)Nc1ccccc1F,GI50,786-0 renal,6.41 µM
same,TGI,786-0 renal,22 µM
same,GI50,A498 renal,17.8 µM
same,TGI,A498 renal,34.1 µM
same,GI50,A549 NSCLC,0.955 µM
same,TGI,A549 NSCLC,26.6 µM
same,GI50,ACHN renal,2.45 µM
same,TGI,ACHN renal,20.9 µM
same,GI50,BT-549 breast,0.477 µM
same,TGI,BT-549 breast,26 µM
same,GI50,CAKI-1 renal,0.525 µM
same,TGI,CAKI-1 renal,15.9 µM
same,GI50,CCRF-CEM leukemia,0.694 µM
same,TGI,CCRF-CEM leukemia,> 100 µM
same,GI50,COLO 205 colon,1.27 µM
same,TGI,COLO 205 colon,10.1 µM
same,GI50,DU-145 prostate,2.85 µM
same,TGI,DU-145 prostate,15.6 µM
same,GI50,EKVX NSCLC,0.526 µM
same,TGI,EKVX NSCLC,67.2 µM
same,GI50,HCC-2998 colon,1.68 µM
same,TGI,HCC-2998 colon,23.1 µM
same,GI50,HCT-116 colon,0.462 µM
same,TGI,HCT-116 colon,18.5 µM
same,GI50,HCT-15 colon,0.434 µM
same,TGI,HCT-15 colon,> 100 µM
same,GI50,HL-60(TB) leukemia,0.385 µM
same,TGI,HL-60(TB) leukemia,13.6 µM
same,GI50,HOP-62 NSCLC,0.829 µM
same,TGI,HOP-62 NSCLC,15.6 µM
same,GI50,HOP-92 NSCLC,6.33 µM
same,TGI,HOP-92 NSCLC,24.5 µM
same,GI50,HS 578T breast,0.513 µM
same,TGI,HS 578T breast,19.5 µM
same,GI50,HT29 colon,0.369 µM
same,TGI,HT29 colon,10.1 µM
same,GI50,IGROV1 ovarian,1 µM
same,TGI,IGROV1 ovarian,25.2 µM
same,GI50,K-562 leukemia,0.307 µM
same,TGI,K-562 leukemia,> 100 µM
same,GI50,KM12 colon,0.475 µM
same,TGI,KM12 colon,37.6 µM
same,GI50,LOX IMVI melanoma,0.62 µM
same,TGI,LOX IMVI melanoma,19.8 µM
same,GI50,M14 melanoma,0.4 µM
same,TGI,M14 melanoma,20.8 µM
same,GI50,MALME-3M melanoma,1.21 µM
same,TGI,MALME-3M melanoma,22.5 µM
same,GI50,MCF7 breast,0.424 µM
same,TGI,MCF7 breast,20.5 µM
same,GI50,MDA-MB-231 breast,0.724 µM
same,TGI,MDA-MB-231 breast,21.2 µM
same,GI50,MDA-MB-435,0.231 µM
same,TGI,MDA-MB-435,0.68 µM
same,GI50,MDA-MB-468 breast,0.817 µM
same,TGI,MDA-MB-468 breast,3.42 µM
same,GI50,MOLT-4 leukemia,0.57 µM
same,TGI,MOLT-4 leukemia,69.8 µM
same,GI50,NCI-H226 lung,3.29 µM
same,TGI,NCI-H226 lung,25 µM
same,GI50,NCI-H23 lung,2.23 µM
same,TGI,NCI-H23 lung,25 µM
same,GI50,NCI-H460 lung,0.406 µM
same,TGI,NCI-H460 lung,12.2 µM
same,GI50,NCI-H522 lung,0.412 µM
same,TGI,NCI-H522 lung,8.84 µM
same,GI50,NCI/ADR-RES ovarian,0.364 µM
same,TGI,NCI/ADR-RES ovarian,3.11 µM
same,GI50,OVCAR-3 ovarian,0.369 µM
same,TGI,OVCAR-3 ovarian,4.74 µM
same,GI50,OVCAR-4 ovarian,10.9 µM
same,TGI,OVCAR-4 ovarian,39 µM
same,GI50,OVCAR-5 ovarian,3.28 µM
same,TGI,OVCAR-5 ovarian,31.9 µM
same,GI50,OVCAR-8 ovarian,1.25 µM
same,TGI,OVCAR-8 ovarian,16.6 µM
same,GI50,PC-3 prostate,2.07 µM
same,TGI,PC-3 prostate,21.2 µM
same,GI50,RPMI-8226 leukemia,1.26 µM
same,TGI,RPMI-8226 leukemia,17.3 µM
same,GI50,RXF 393 renal,0.645 µM
same,TGI,RXF 393 renal,5.25 µM
same,GI50,SF-268 CNS,3.54 µM
same,TGI,SF-268 CNS,> 100 µM
same,GI50,SF-295 CNS,0.401 µM
same,TGI,SF-295 CNS,15.5 µM
same,GI50,SF-539 CNS,0.529 µM
same,TGI,SF-539 CNS,4.72 µM
same,GI50,SK-MEL-2 melanoma,0.321 µM
same,TGI,SK-MEL-2 melanoma,10.3 µM
same,GI50,SK-MEL-28 melanoma,10.2 µM
same,TGI,SK-MEL-28 melanoma,26.4 µM
same,GI50,SK-MEL-5 melanoma,0.614 µM
same,TGI,SK-MEL-5 melanoma,11.1 µM
same,GI50,SK-OV-3 ovarian,6.48 µM
same,TGI,SK-OV-3 ovarian,23.8 µM
same,GI50,SN12C renal,0.842 µM
same,TGI,SN12C renal,25.8 µM
same,GI50,SNB-19 CNS,1.73 µM
same,TGI,SNB-19 CNS,24 µM
same,GI50,SNB-75 CNS,0.201 µM
same,TGI,SNB-75 CNS,7.22 µM
same,GI50,SW-620 colon,0.412 µM
same,TGI,SW-620 colon,21.9 µM
same,GI50,T-47D breast,2.85 µM
same,TGI,T-47D breast,> 100 µM
same,GI50,TK-10 renal,12.1 µM
same,TGI,TK-10 renal,30 µM
same,GI50,U251 CNS,0.468 µM
same,TGI,U251 CNS,14.4 µM
same,GI50,UACC-257 melanoma,14.4 µM
same,TGI,UACC-257 melanoma,75.4 µM
same,GI50,UACC-62 melanoma,0.387 µM
same,TGI,UACC-62 melanoma,18.9 µM
same,GI50,UO-31 renal,1.7 µM
same,TGI,UO-31 renal,21.8 µM
